According to patent US20120142657A1, “GABA-STEROID ANTAGONISTS AND THEIR USE FOR THE TREATMENT OF CNS DISORDERS” (UMECRINE AB, priority 2004, published 2012):

What follows are compounds tested against T1, rat GABA-A receptor (alpha1, beta2, gamma2L) (Rattus norvegicus, UniProt P18508+P62813+P63138, INS375LLRMFSFK) (assay: Chloride flux (current) in recombinant GABA-A receptors expressed in Xenopus laevis oocytes, voltage clamp). Conditions: chloride flux induced by GABA alone.
T1 construct: expressed in transfected cells; host or cells: Xenopus laevis oocytes (mRNA injection)
T1 sequence (P62813 28-455, stated change not applied): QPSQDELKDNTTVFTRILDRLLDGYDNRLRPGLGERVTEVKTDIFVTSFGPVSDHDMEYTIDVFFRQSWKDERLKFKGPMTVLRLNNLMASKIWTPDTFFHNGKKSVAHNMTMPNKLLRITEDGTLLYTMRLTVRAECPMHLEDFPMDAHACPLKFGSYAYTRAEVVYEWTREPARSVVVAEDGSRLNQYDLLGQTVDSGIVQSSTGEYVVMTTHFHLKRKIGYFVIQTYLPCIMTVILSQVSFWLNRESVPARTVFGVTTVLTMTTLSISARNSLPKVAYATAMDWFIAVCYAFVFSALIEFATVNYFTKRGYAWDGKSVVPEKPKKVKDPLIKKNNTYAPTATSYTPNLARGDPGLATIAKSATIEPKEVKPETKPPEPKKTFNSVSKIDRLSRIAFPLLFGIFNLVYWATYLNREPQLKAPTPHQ
T1 sequence (P63138 26-474, stated change not applied): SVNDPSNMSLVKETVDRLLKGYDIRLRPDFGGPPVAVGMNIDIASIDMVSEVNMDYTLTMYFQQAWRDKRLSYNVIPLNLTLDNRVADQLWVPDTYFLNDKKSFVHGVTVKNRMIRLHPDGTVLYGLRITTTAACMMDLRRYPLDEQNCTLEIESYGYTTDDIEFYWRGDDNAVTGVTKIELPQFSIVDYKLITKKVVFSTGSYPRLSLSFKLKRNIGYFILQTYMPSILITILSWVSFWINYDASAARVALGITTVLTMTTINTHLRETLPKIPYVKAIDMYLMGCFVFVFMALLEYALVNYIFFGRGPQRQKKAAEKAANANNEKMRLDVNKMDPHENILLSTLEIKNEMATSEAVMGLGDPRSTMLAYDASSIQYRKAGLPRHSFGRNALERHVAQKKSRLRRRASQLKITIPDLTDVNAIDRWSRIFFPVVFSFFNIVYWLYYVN
T1 sequence (P18508 with tags, fused parts or gaps INS375LLRMFSFK): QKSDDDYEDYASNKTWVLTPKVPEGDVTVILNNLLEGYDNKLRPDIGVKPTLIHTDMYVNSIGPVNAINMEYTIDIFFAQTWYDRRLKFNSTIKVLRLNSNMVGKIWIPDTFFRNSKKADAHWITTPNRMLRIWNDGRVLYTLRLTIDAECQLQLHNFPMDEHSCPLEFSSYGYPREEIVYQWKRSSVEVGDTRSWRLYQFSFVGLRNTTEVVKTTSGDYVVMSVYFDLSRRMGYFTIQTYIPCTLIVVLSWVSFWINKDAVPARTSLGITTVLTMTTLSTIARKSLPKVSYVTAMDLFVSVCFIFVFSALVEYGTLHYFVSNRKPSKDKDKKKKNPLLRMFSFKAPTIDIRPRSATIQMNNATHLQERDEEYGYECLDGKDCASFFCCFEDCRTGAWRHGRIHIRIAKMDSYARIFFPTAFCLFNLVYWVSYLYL
Format: cell-based
Source text: Studies of Chloride Flux in Recombinant GABA-A Receptors (Alpha1, Beta2, Gama2L) Expressed in Xenopus laevis Oocytes Using Voltage Clamp Methods.
The GABA-A receptor used to test the steroids in the present invention was recombinantly expressed in oocytes of Xenopus laevis. The oocytes have a large capacity to express proteins for the surface membrane from mRNA injected into the oocyte. The receptor contains five proteins of three different types and the mRNA for the receptor subtypes alpha1, beta2, gamma2L were expressed in the present test situation. These subtypes of the GABA-A receptor are the most common in the central nervous system. These GABA-A receptors contain two alpha1 proteins, two beta2 and one gamma protein. After 48 hours of incubation the GABA-A receptors are mounted in the membrane and behave in vitro in a similar way as the receptor in situ. Therefore this model system is considered by persons skilled in art to be a good in vitro test system for GABA-A receptor active drugs. The flux of chloride through the chloride channel is a result of GABA activity on the GABA-A receptor and GABA-A receptor modulators like the 3alpha-hydroxy-5alpha/beta-pregnan-steroids can enhance the effectiveness of GABA. The flux of chloride through the receptor is measured as the current induced by the flux with a voltage clamp technique. Dose response curves of the agonists and antagonists can be developed and the current is dependent of the GABA-A receptor activation obtained after the interaction between different dosages of agonists and antagonists. By normalizing the data against a precise current, in the present study 2 μA, the results from different oocytes can be compared and by normalizing the current change against a specific dose, here 10 μM, the different test substances can be compared. The 3alpha-hydroxy-5alpha-pregnan-20-one induced enhancement of GABA mediated chloride flux was set to 1 and obtained by superfusing the GABA-A receptor expressing oocytes with 3 μM GABA+3 μM 3alpha-hydroxy-5alpha-pregnan-20-one in an in vitro bath. The chloride flux was measured as the current induced by the flux of chloride through the GABA-A receptors. The GABA induced chloride flux was set to 1 and obtained by superfusing the GABA-A receptor expressing oocytes in vitro with 30 μM GABA. The inhibiting effect on 3alpha-hydroxy-5alpha-pregnan-20-one induced enhancement of GABA mediated chloride flux by the tested UC-steroids is compared to the inhibiting effect of the same UC-steroids on GABA activation of the GABA-A receptor. In FIG. 1 are the UC-steroids with low GABA antagonism highlighted with an X while the UC-steroids with partial GABA antagonism are highlighted with a black dot ([…]).
On the figure the result are normalized to the control currents activated by 30 µM GABA or 3 μM GABA+3 μM 3alpha-hydroxy-5alpha-pregnan-20-one. The control current in the absence of steroid antagonists is normalized to […]. Each steroid antagonist is tested at 10 μM. […] The black dot ([…]) highlights the steroid antagonist that inhibits both direct GABA-response (30 μM) and 3alpha-hydroxy-5alpha-pregnan-20-one enhanced GABA response. The labels of the data points are marked with product numbers, whereas the numbering of different substances full name is shown in Table 2 and Table 3.
The studies on 3alpha-hydroxy-5alpha-pregnan-20-one inhibition were made in the presence of 3 μM GABA+3 μM 3alpha-hydroxy-5alpha-pregnan-20-one. […] Number of cells recorded n=3-10. […]

Row | Compound | antagonism against GABA itself (in words)
1 | C[C@]12CC[C@H](O)C[C@H]1CC[C@@H]1[C@@H]2CC[C@]2(C)[C@@H](C(=O)CO)CC[C@@H]12 [UC1015, 5beta-PREGNAN-3beta, 21-DIOL-20-ONE] | partial antagonism against the GABA effect
2 | CC(=O)O[C@H]1CC[C@@]2(C)[C@@H](CC[C@@H]3[C@@H]2CC[C@]2(C)[C@@H](C(C)=O)CC[C@@H]32)C1 [UC1012, 5alpha-PREGNAN-3beta-OL-20-ONE ACETATE] | partial antagonism against the GABA effect
3 | CC(=O)[C@H]1CC[C@H]2[C@@H]3CC[C@@H]4C[C@@H](O)CC[C@]4(C)[C@H]3CC[C@]12C [UC1014, 5beta- PREGNAN-3beta-OL-20-ONE] | partial antagonism against the GABA effect
4 | CC(O)C1CCC2C3CCC4CC(O)CCC4(C)C3CCC12C (stereo not drawn) [UC1011, 5alpha-PREGNAN-3beta, 20beta-DIOL] | low antagonism against GABA it self
5 | C[C@@H](O)[C@H]1CC[C@H]2[C@@H]3CC[C@@H]4C[C@@H](O)CC[C@]4(C)[C@H]3CC[C@]12C [UC1013, 5beta-PREGNAN-3beta, 20alpha-DIOL] | low antagonism against GABA it self
